According to US9127035B2, “Compounds for use in the treatment of bacterial infection” (THE ROYAL INSTITUTION FOR THE ADVANCEMENT OF …, priority 2011, dated 2015):
Read-outs that look alike come from different tables or passages of the source.

How the values were obtained:
[1] = biological target: T1, E. coli pantothenate kinase (PanK or coaA enzyme) (Escherichia coli, UniProt P0A6I3); conditions: natural substrates of PanK; literature values (footnotes a, b); cited from earlier work
T1 construct: made in house
T1 sequence (P0A6I3 1-316): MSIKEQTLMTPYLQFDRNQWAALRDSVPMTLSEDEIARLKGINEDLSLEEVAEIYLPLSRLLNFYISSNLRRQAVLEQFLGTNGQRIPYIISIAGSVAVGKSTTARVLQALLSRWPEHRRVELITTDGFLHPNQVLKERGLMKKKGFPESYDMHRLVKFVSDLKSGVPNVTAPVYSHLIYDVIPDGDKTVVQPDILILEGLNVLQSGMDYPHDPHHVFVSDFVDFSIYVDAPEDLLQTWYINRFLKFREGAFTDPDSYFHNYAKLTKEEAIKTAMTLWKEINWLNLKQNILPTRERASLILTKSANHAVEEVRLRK

PanK, PPAT and DPCK = experiment: Biosynthetic in vitro assay with a mixture of PanK, PPAT and DPCK enzymes; assay type: biochemical; conditions: substrate 5.0 mM, 3 hours at room temperature; HPLC, approximate ± 5%, duplicate
Method: Biosynthetic in vitro assay with a mixture of PanK, PPAT and DPCK enzymes. The E. coli enzymes pantothenate kinase (PanK or coaA enzyme), phosphopantetheine adenylyltransferase (PPAT or coaD enzyme), and dephosphocoenzyme A kinase (DPCK or coaE enzyme) were expressed and purified as previously described [Geerlof A, Lewendon A, Shaw W V J Biol Chem 1999, 274:27105-27111]. Each reaction mixture (500 μL) contained ATP (5.0 mM), KCl (20 mM), MgCl2 (10 mM), DTT (2.0 mM), PanK (5 μg, 278 nM), PPAT (5 μg, 500 nM), DPCK (5 μg, 454 nM) in Tris-Cl Buffer (50 mM, pH 7.6). The reaction was initiated with the addition of pantetheine (5.0 mM) for comparison, water as a negative control, or compounds 3a-e (5.0 mM). Reactions were incubated for 3 hours at room temperature and then stopped by heating the mixture to 95° C. for 5 min. The precipitated protein was removed by centrifugation (13,000 rpm for 5 min) and the supernatant was analyzed by LC/MS. Reversed-phase analytical HPLC was performed with an analytical 4.60×250 mm, SYNERGI 4p Hydro-RP 80A (Phenomenex, Torrance, Calif.) column coupled to an Agilent 6120 Quadrupole LC/MS system for ESI-MS analysis. The HPLC conditions had the sample eluted at a flow rate of 0.5 mL min^−1 using a combination of mobile phase A (H2O) and mobile phase B (acetonitrile), Elution conditions are as follows: isocratic 1% phase B from 0-3 min; followed by the following linear gradients of phase B: 1-10% from 3-5 min; 10-15% from 5-10 min; 15-30% from 10-13 min; an finally isocratic phase B at 30% from 13-26 min. The detector was set to 214 nm. These experiments were run in duplicate.

[2] = test system: Enterococcus faecium ATCC 19434 which expresses AAC(6′)-li naturally; experiment: Checkerboard assay, potentiation of kanamycin A on a resistant strain; assay type: cell-based; conditions: for effect on the MIC50 of kanamycin A: compound 512 μg/ml combined with kanamycin A, compared to kanamycin A alone
Method: General biological methods. Enterococcus faecium ATCC 19434, Staphylococcus aureus ATCC 29213 and 43300, Acinetobacter baumannii ATCC 19606, Pseudomonas aeruginosa ATCC 27853, Klebsiella penumoniae ATCC 13883, and Escherichia coli ATCC 25922 and 11775 were all purchased from Cedarlane (Burlington, ON). E. faecium was grown in Difco brain heart infusion media (BD, Mississauga, ON), S. aureus and P. aeruginosa were grown in Trypticase soy media (BD, Mississauga, ON), and E. coli, A. baumannii, and K. pneumoniae were grown in Nutrient media (BD, Mississauga, ON). Antibacterial tests were performed using Falcon™ Black with Clear Bottom 96-well Microtest™ Optilux plates (BD, Mississauga, ON).
(§1) Checkerboard assay to determine the synergistic activity of compounds 3a-f with kanamycin A or tobramycin on a resistant strain. A two dimensional checkerboard MIC assay was carried out as previously described [Gao F, Yan X, Shakya T, Baettig O M, Ait-Mohand-Brunet S, Berghuis A M, Wright G D, Auclair K; J Med Chem, 2006, 49:5273-5281] to observe for the potentiation activity of compounds 3a-f towards the antibacterial activity of kanamycin A or tobramycin against Enterococcus faecium ATCC 19434 which expresses AAC(6′)-li naturally, or an E. coli strain engineered to express AAC(6)-li. Compounds 3a-f were diluted by 2-fold sequential dilutions to create a gradient from 32 to 512 μg/mL while the concentrations used for kanamycin A or tobramycin were 0, 10, 20, 40, 50, 100, 150, 200, 250, and 300 μg/mL. The cultures were grown at 37° C. for 16 h in 96-well plates, and then monitored for optical density at 600 nm using a Spectramax 190 microplate reader (Molecular Devices, Sunnyvale, Calif.). Data was normalized against a positive growth control and reported as a percentage of bacterial cell growth. All data points are from quadruplicate experiments.

[3] = test system: E. coli (BL21) harbouring AAC(6′)-li resistance gene in pET-22b(+) vector; experiment: Checkerboard assay, potentiation of tobramycin on engineered E. coli; assay type: cell-based; conditions: tobramycin combined with compound; E. coli engineered to express AAC(6′)-li
Method: as §1

[4] = biological target: T1, E. coli pantothenate kinase (PanK or coaA enzyme); experiment: PanK enzyme assay (Michaelis-Menten kinetics); assay type: biochemical; conditions: transformation by PanK; 25° C., Tris-HCl pH 7.6; triplicate
Method: PanK enzyme assay. The E. coli pantothenate kinase (PanK or coaA enzyme) was expressed and purified as previously described. Enzyme activity was measured as described in the literature [Strauss E, Begley T P J Biol Chem, 2002, 277:48205-48209]. This assay couples the production of ADP to the consumption of NADH through the activity of pyruvate kinase and lactic dehydrogenase. The decrease of NADH concentration was monitored at 340 nm. Reactions were performed at 25° C. in an Agilent 8453 UV-Vis spectrophotometer coupled to an Agilent 89090A Peltier temperature controller. Kinetic parameters were determined by fitting the rate data into the Michaelis-Menten equation using Prism 4.0 (GraphPad). Each reaction mixture (500 μL) contained ATP (1.5 mM), NADH (0.3 mM), phosphoenolpyruvate (0.5 mM), MgCl2 (10 mM), KCl (20 mM), pyruvate kinase (5 units), lactic dehydrogenase (5 units), and PanK (5 μg, 278 nM) in Tris-HCl buffer (50 mM, pH 7.6). The reaction was initiated by addition of the desired substrate (10-160 μM). All data points are from triplicate experiments.

Row | Compound | Compounds detected by LC-MS: 2a-e, relative percentage (PanK, PPAT and DPCK) [%] | Compounds detected by LC-MS: 7a-e, relative percentage (PanK, PPAT and DPCK) [%] | effect on the MIC50 of kanamycin A [2] | Compounds detected by LC-MS: 6a-e, relative percentage (PanK, PPAT and DPCK) [%] | also measured
1 | CC(C)(CO)[C@@H](O)C(=O)NCCC(=O)NCCS [Pantetheine] |  |  |  |  | kcat [1]: 0.32 ± 0.02^b sec^−1
2 | CC(C)(CO)[C@@H](O)C(=O)NCCC(=O)NCCSCCCCC(=O)NC[C@H]1O[C@H](O[C@H]2[C@H](O)[C@@H](O)[C@H](N)C[C@@H]2N)[C@H](N)[C@@H](O)[C@@H]1O [Compound 3d, Neamine 6′-N—(R)-(3-((2-((2-amino-2-oxopentyl)thio)ethyl)amino)-3-oxopropyl)-2,4-dihydroxyl-3,3-dimethylbutanamide] | 90 | 10 | drop by half |  | reduction in the MIC of tobramycin [3]: 10 fold
3 | CC(C)(CO)[C@@H](O)C(=O)NCCC(=O)NCCSCCCCCC(=O)NC[C@H]1O[C@H](O[C@H]2[C@H](O)[C@@H](O)[C@H](N)C[C@@H]2N)[C@H](N)[C@@H](O)[C@@H]1O [Compound 3e, Neamine 6′-N—(R)-(3-((2-((2-amino-2-oxohexyl)thio)ethyl)amino)-3-oxopropyl)-2,4-dihydroxyl-3,3-dimethylbutanamide] | 80 | 20 | drop by half |  | 
4 | CC(C)(CO)[C@@H](O)C(=O)NCCC(=O)NCCSCCCC(=O)NC[C@H]1O[C@H](O[C@H]2[C@H](O)[C@@H](O)[C@H](N)C[C@@H]2N)[C@H](N)[C@@H](O)[C@@H]1O [Compound 3c, Neamine 6′-N—(R)-(3-((2-((2-amino-2-oxobutyl)thio)ethyl)amino)-3-oxopropyl)-2,4-dihydroxyl-3,3-dimethylbutanamide] | 55 | 40 |  | 5 | dose dependence of the potentiation of kanamycin A ([2]; compound 32 to 512 μg/mL with kanamycin A): dose-dependent effect
5 | CC(C)(CO)[C@@H](O)C(=O)NCCC(=O)O [Pantothenic acid] |  |  |  |  | Km [1]: 17 ± 2 µM; kcat [1]: 1.07 ± 0.04^a sec^−1
6 | NC[C@H]1O[C@H](O[C@H]2[C@H](O)[C@@H](O[C@H]3O[C@H](CO)[C@@H](O)[C@H](N)[C@H]3O)[C@H](N)C[C@@H]2N)[C@H](O)[C@@H](O)[C@@H]1O [kanamycin A, reference compound] |  |  |  |  | MIC50 of kanamycin A (minimum concentration causing a 50% growth inhibition) ([2]; kanamycin A alone, in the absence of compounds 3a-e): ~125 µg/mL
7 | CC(C)(CO)[C@@H](O)C(=O)NCCC(=O)NCCSCCC(=O)NC[C@H]1O[C@H](O[C@H]2[C@H](O)[C@@H](O)[C@H](N)C[C@@H]2N)[C@H](N)[C@@H](O)[C@@H]1O [Compound 3b, Neamine 6′-N—(R)-(3-((2-((2-amino-2-oxopropyl)thio)ethyl)amino)-3-oxopropyl)-2,4-dihydroxyl-3,3-dimethylbutanamide] | 10 | 70 |  | 20 | 
8 | CC(C)(CO)[C@@H](O)C(=O)NCCC(=O)NCCSCC(=O)NC[C@H]1O[C@H](O[C@H]2[C@H](O)[C@@H](O)[C@H](N)C[C@@H]2N)[C@H](N)[C@@H](O)[C@@H]1O [Compound 3a, Neamine 6′-N—(R)-(3-((2-((2-amino-2-oxoethyl)thio)ethyl)amino)-3-oxopropyl)-2,4-dihydroxyl-3,3-dimethylbutanamide] |  | 25 | negligible effect | 5 | Km [4]: ≥ 500 µM; Compounds detected by LC-MS: 3a-e (starting material), relative percentage (PanK, PPAT and DPCK): 70%
